Like-named read-outs stand apart in the source and are kept apart here. Where no end group is shown, it is not given here.
Key:
κLight1.3 [1] = target: T1, κLight1.3 (Homo sapiens, UniProt P41145, INS261[…]/L259S/S262L/V164K); type: cell-based; conditions: read-out: κLight1.3 EC50 in neurons; dissociated hippocampal neurons
T1 construct: TlcnC (telencephalin) tag (C); PRC tag (C); ER2 (ER export motif FCYENEV) tag (C); expressed in transfected cells; dissociated hippocampal neurons (AAV9-hSyn); mouse brain (AAV9-hSyn)
Target sequence in this assay (P41145 with tags, fused parts or gaps V164K/L259S/INS261[withheld]/S262L): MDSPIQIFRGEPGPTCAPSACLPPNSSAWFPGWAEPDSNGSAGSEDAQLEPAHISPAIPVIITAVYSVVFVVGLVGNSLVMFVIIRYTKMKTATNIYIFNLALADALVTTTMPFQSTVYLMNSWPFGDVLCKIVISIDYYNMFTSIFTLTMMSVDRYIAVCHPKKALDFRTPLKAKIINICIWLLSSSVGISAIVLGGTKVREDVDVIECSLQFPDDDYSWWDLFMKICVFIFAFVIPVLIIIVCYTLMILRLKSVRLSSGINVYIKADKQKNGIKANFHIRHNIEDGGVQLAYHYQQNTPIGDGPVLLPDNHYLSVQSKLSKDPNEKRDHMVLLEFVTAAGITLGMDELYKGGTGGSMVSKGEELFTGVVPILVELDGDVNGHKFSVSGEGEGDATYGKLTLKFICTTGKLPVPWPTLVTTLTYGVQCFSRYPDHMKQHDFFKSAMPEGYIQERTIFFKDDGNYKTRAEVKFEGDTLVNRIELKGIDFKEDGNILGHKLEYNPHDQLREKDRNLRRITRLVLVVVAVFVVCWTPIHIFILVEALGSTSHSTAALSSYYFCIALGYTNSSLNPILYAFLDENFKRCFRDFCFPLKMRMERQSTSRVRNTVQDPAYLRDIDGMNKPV

κLight1.3 [2] = target: T1, κLight1.3; type: cell-based; conditions: for EC50: read-out: κLight EC50
δLight [3] = conditions: read-out: δLight EC50 in neurons; dissociated hippocampal neurons
κLight1.3a [4] = assay: in situ titration in dissociated hippocampal neurons expressing κLight1.3a; type: cell-based, human
κLight = target: T2, κLight (Homo sapiens, UniProt P41145, INS261[…]/L259S/S262L/V164K); assay: [3H]diprenorphine displacement binding, κLight cell membranes; conditions: read-out: κLight IC50
T2 construct: TlcnC (telencephalin) tag (C); PRC tag (C); ER2 (ER export motif FCYENEV) tag (C); expressed in transfected cells; dissociated hippocampal neurons (AAV9-hSyn); mouse brain (AAV9-hSyn)

δLight [5] = target: T3, δLight (Homo sapiens, UniProt P41143, G248L/INS249[…]/V154K); type: in vivo, mouse
T3 construct: PRC tag (C); ER2 (ER export motif) tag (C); expressed in transfected cells; dissociated hippocampal neurons (AAV9-hSyn); mouse brain (AAV9-hSyn)
T3 sequence (P41143 with tags, fused parts or gaps, stated change not applied): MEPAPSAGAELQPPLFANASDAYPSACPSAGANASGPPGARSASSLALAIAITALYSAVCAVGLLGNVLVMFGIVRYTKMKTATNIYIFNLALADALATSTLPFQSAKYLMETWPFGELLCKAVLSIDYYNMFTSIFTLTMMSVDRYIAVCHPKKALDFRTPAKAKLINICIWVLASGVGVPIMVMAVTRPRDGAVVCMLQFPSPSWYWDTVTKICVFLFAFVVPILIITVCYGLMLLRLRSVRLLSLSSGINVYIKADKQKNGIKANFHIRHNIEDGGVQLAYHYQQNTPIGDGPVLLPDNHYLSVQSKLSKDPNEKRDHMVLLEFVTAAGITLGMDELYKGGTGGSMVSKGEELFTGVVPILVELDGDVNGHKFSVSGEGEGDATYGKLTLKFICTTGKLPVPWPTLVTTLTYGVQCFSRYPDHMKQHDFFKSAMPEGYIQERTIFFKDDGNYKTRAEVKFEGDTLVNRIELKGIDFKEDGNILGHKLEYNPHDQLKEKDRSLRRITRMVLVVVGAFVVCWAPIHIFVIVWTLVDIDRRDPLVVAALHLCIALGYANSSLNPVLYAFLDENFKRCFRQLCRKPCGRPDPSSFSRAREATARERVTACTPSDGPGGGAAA
Description: (§1) We next determined if κLight and δLight can be activated by systemic administration of exogenous small-molecule drugs in vivo. We injected AAV9-hSyn encoding κLight1.3 or δLight, and κLight0 or δLight0 in the arcuate nucleus (ARC) of the hypothalamus, hippocampal CA3 region[43] and NAc[30], areas abundant in κOR and δOR. We next implanted fiber-optic ferrules above each injection site and recorded the fluorescence of κLight and δLight upon intraperitoneal (i.p.) injection of opioid receptor-selective ligands using fiber photometry (Fig. 4a and Extended Data Fig. 4h–j).
(§2) For fiber photometry studies, recordings were obtained throughout the entirety of drug injection, Pavlovian conditioning and head-fixed sessions as previously described. Before recording, an optic fiber was attached to the implanted fiber using a ferrule sleeve (Doric, ZR_2.5). Two LEDs were used to excite κLight1.3. […] Laser intensity for the 470-nm- and 405-nm-wavelength bands were measured at the tip of the optic fiber and adjusted to 50 μW before each day of recording. κLight1.3 fluorescence traveled through the same optic fiber before being bandpass filtered (525 ± 25 nm, Doric, FMC4), transduced by a femtowatt silicon photoreceiver (Newport, 2151) and recorded by a real-time processor (TDT, RZ5P). […]
Custom MATLAB scripts were developed for analyzing fiber photometry data in the context of mouse behavior. […] After baseline correction, the photometry trace was z-scored relative to the mean and standard deviation of the session. The post-processed fiber photometry signal was analyzed in the context of animal behavior during Pavlovian conditioning and operant task performance. […] Peak, mean and minimum fluorescence was determined during predetermined time windows for the injection period (0–5 min), reward period (5–20 s), release period (0–20 s) or artifact period (0–20 s) subtracted from peak, mean or minimum fluorescence values in a baseline window (−5 to 0 s). […]

µLight [6] = target: µLight (Homo sapiens, UniProt P35372, INS270[…]/V175Q); type: cell-based; conditions: for EC50: read-out: μLight EC50
Chain of µLight (Homo sapiens, UniProt P35372, INS270[…]/V175Q) (P35372 with tags, fused parts or gaps V175Q/INS270[withheld]): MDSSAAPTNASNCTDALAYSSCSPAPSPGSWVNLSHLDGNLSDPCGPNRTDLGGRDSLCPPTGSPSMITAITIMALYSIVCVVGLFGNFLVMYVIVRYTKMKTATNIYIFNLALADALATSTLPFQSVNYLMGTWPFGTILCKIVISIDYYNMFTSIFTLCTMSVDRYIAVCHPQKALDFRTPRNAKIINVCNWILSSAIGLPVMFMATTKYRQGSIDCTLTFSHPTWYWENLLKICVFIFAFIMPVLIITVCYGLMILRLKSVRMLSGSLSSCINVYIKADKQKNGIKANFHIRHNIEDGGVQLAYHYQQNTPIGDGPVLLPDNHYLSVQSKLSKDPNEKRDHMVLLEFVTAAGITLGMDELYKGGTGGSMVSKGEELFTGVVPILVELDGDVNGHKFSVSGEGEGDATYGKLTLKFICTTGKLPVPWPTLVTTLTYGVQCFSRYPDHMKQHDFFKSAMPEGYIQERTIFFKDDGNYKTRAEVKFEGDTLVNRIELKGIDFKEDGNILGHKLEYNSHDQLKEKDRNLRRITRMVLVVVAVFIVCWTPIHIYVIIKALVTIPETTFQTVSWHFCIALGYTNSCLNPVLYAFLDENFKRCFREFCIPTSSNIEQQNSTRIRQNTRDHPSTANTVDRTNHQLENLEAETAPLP

δLight0 = target: T4, δLight0 (Homo sapiens, UniProt P41143, D128N/G248L/INS249[…]/V154K); assay: in vivo fiber photometry of control sensor δLight0 upon i.p. drug injection; set-up: species or system mouse; conditions: 5 mg/kg SNC162, n = 4 animals
T4 construct: ER2 tag (ER export motif FCYENEV) (C); PRC (proximal restriction and clustering) tag, after a GS linker (C); expressed in transfected cells; host or cells: mouse brain neurons (ARC; NAc) transduced in vivo with AAV-hSyn-δLight0
T4 sequence (P41143 with tags, fused parts or gaps, stated change not applied): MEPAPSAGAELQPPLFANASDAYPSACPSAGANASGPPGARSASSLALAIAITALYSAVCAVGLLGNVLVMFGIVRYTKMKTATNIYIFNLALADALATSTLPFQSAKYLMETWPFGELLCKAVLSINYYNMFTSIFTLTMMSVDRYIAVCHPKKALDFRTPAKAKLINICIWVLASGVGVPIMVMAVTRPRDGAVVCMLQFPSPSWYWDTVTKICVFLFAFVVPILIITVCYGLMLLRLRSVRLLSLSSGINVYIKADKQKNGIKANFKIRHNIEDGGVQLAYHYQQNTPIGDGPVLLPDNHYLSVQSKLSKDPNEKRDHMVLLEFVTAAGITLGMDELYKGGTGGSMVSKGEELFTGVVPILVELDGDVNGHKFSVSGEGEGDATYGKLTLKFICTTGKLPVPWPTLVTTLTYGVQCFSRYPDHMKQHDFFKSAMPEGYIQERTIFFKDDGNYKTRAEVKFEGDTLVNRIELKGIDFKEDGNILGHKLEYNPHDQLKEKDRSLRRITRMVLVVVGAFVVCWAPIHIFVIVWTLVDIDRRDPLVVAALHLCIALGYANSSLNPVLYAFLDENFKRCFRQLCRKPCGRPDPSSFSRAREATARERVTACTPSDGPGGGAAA
Description: as §1
as §2, with “described.” for “described. Before recording, an optic fiber was attached to the implanted fiber using a ferrule sleeve (Doric, ZR_2.5). Two LEDs were used to excite κLight1.3.”
Custom MATLAB scripts were developed for analyzing fiber photometry data in the context of mouse behavior. […] After baseline correction, the photometry trace was z-scored relative to the mean and standard deviation of the session. […]

δLight [7] = conditions: neuron cultures; 100 μM ME then 1 mM naloxone
µLight [8] = target: µLight (Homo sapiens, UniProt P35372, V175Q); assay: biochemical; type: binding
Chain of µLight (Homo sapiens, UniProt P35372, V175Q) (P35372 whole entry V175Q, looked up): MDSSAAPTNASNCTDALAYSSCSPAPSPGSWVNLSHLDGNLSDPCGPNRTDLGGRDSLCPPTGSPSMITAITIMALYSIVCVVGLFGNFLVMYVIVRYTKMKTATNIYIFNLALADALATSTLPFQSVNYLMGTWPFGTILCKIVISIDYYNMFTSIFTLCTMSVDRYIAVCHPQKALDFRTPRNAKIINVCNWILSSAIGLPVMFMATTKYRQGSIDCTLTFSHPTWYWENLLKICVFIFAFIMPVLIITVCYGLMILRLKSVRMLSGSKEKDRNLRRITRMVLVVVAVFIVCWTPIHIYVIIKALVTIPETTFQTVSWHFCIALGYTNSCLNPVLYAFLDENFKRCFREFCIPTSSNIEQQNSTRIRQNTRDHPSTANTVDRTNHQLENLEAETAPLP

κLight1.3a [9] = assay: two-photon imaging of κLight1.3a response to electrical stimulation in hippocampal CA3 slices; set-up: species or system mouse; conditions: antagonist 100 µM, n = 3 slices
κLight1.3 [10] = target: T1, κLight1.3; type: cell-based
Target sequence in this assay (P41145 with tags, fused parts or gaps V164K/L259S/INS261[withheld]/S262L): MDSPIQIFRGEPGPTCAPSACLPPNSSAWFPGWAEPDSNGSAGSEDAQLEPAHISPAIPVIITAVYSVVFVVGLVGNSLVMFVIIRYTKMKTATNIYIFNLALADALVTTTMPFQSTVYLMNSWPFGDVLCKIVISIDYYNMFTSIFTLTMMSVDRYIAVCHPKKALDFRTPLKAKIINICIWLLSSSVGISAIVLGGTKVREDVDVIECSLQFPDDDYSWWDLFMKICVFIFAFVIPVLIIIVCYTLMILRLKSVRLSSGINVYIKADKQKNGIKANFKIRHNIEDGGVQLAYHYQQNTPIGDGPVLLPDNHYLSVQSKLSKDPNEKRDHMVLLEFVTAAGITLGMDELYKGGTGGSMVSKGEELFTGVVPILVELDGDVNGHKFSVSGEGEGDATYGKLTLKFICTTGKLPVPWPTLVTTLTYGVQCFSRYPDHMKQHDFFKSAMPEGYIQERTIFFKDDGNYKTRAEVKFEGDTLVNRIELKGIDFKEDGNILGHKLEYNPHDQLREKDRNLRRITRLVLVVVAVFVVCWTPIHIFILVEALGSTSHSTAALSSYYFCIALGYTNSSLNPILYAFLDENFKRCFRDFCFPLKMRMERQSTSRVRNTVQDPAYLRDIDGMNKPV

## CC[C@H](C)[C@H](NC(=O)[C@H](CCCNC(=N)N)NC(=O)[C@H](CCCNC(=N)N)NC(=O)[C@H](CC(C)C)NC(=O)[C@H](Cc1ccccc1)NC(=O)CNC(=O)CNC(=O)[C@@H](N)Cc1ccc(O)cc1)C(=O)N[C@@H](CCCNC(=N)N)C(=O)N1CCC[C@H]1C(=O)N[C@@H](CCCCN)C(=O)N[C@@H](CC(C)C)C(=O)N[C@@H](CCCCN)C(=O)O [DynA13, dynorphin A1-13]
κLight1.3 [1]
  EC50: 19.2 nM
κLight1.3 [2]
  EC50: 0.0898 nM
δLight [3]
  EC50: 562 nM
κLight1.3a [4]
  EC50: 35.4 nM

## CSCC[C@H](NC(=O)[C@H](Cc1ccccc1)NC(=O)CNC(=O)CNC(=O)[C@@H](N)Cc1ccc(O)cc1)C(=O)O [ME, met-enkephalin]
κLight1.3 [1]
  EC50: 52100 nM
κLight
  IC50: 130 ± 3 nM
κLight1.3 [2]
  Normalized ΔF/F of κLight1.3: 0.18 ± 0.005
  EC50: 6640 nM
κLight1.3a [4]
  EC50: 9650 nM

## C=CCN1C[C@H](C)N([C@@H](c2ccccc2)c2ccc(C(=O)N(CC)CC)cc2)C[C@H]1C [SNC162]
δLight [5]; ARC, SNC162 2.25 mg per kg
  z-score peak of δLight: 2.4 ± 1.0
δLight [5]; ARC, SNC162 5 mg per kg
  z-score peak of δLight: 7.28 ± 2.4
δLight [5]; NAc, SNC162 5 mg per kg
  z-score peak of δLight: 7.45 ± 2.20
κLight1.3 [2]
  Normalized ΔF/F of κLight1.3: 0.009 ± 0.02
  κLight ΔF/F max (%): 12.2±2.39%
  EC50: 8280 nM
µLight [6]
  μLight ΔF/F max (%): 2.9±1.69%
  EC50: 87.3 nM
δLight0; ARC (panel j)
  peak z-score of δLight0: 0.77 ± 0.5%
δLight0; ARC as printed (panel l)
  peak z-score of δLight0: −0.61 ± 0.4%

## C=CCN1CC[C@]23c4c5ccc(O)c4O[C@H]2C(=O)CC[C@@]3(O)[C@H]1C5 [naloxone]
δLight [7]
  δLight ΔF/F, + antagonist response: 1.82 ± 2.4%

## YGGFLRRQF [DynB9, Dynorphin B9]
κLight1.3 [2]
  Normalized ΔF/F of κLight1.3: 0.97 ± 0.03
  EC50: 10 nM
µLight [6]
  EC50: 3760 nM

## YGGFMRRVGRPEWWMDYQ [BAM18]
µLight [8]; read-out: μLight IC50
  IC50: 14 ± 2 nM
κLight
  IC50: 243 ± 2 nM
κLight1.3 [2]
  Normalized ΔF/F of κLight1.3: 0.48 ± 0.03
  EC50: 35.6 nM
µLight [6]
  EC50: 186 nM

## C[C@@H](NC(=O)[C@@H](N)Cc1ccc(O)cc1)C(=O)NCC(=O)N(C)[C@@H](Cc1ccccc1)C(=O)NCCO [DAMGO]
µLight [8]
  μLight % bound at 10 μM: 79±3%
κLight1.3 [2]
  Normalized ΔF/F of κLight1.3: 0.17 ± 0.03
µLight [6]
  μLight ΔF/F max (%): 50.5±1.95%

## CN(C(=O)/C=C/c1ccoc1)[C@@H]1CC[C@@]2(O)[C@H]3Cc4ccc(O)c5c4[C@@]2(CCN3CC2CC2)[C@H]1O5 [Nalfurafine, nalfurafine]
κLight1.3 [2]
  Normalized ΔF/F of κLight1.3: 1.91 ± 0.09

## CC1(C)SSC(C)(C)[C@@H](NC(=O)[C@@H](N)Cc2ccc(O)cc2)C(=O)NCC(=O)N[C@@H](Cc2ccccc2)C(=O)N[C@H]1C(=O)O [DPDPE]
κLight1.3 [2]
  Normalized ΔF/F of κLight1.3: 0.19 ± 0.04
  κLight ΔF/F max (%): 20.5±1.67%

## YGGFLRKYP [β-neoendorphin]
κLight
  IC50: 13 ± 2 nM
κLight1.3 [2]
  Normalized ΔF/F of κLight1.3: 0.26 ± 0.03
  EC50: 25.9 nM
µLight [6]
  EC50: 6310 nM

## CC(C)C[C@H](NC(=O)[C@H](Cc1ccccc1)NC(=O)CNC(=O)CNC(=O)[C@@H](N)Cc1ccc(O)cc1)C(=O)O [LE, Leu-enkephalin]
κLight1.3 [2]
  Normalized ΔF/F of κLight1.3: 0.24 ± 0.02

## CC[C@H](C)[C@H](NC(=O)[C@H](C)NC(=O)[C@H](CC(N)=O)NC(=O)[C@H](CCCCN)NC(=O)[C@H](Cc1ccccc1)NC(=O)[C@H](CC(C)C)NC(=O)[C@@H](NC(=O)[C@@H](NC(=O)[C@H](CC(C)C)NC(=O)[C@@H]1CCCN1C(=O)[C@@H](NC(=O)[C@H](CCC(N)=O)NC(=O)[C@H](CO)NC(=O)[C@H](CCCCN)NC(=O)[C@H](CCC(=O)O)NC(=O)[C@H](CO)NC(=O)[C@@H](NC(=O)[C@H](CCSC)NC(=O)[C@H](Cc1ccccc1)NC(=O)CNC(=O)CNC(=O)[C@@H](N)Cc1ccc(O)cc1)[C@@H](C)O)[C@@H](C)O)C(C)C)[C@@H](C)O)C(=O)N[C@H](C(=O)N[C@@H](CCCCN)C(=O)N[C@@H](CC(N)=O)C(=O)N[C@@H](C)C(=O)N[C@@H](Cc1ccc(O)cc1)C(=O)N[C@@H](CCCCN)C(=O)N[C@@H](CCCCN)C(=O)NCC(=O)N[C@@H](CCC(=O)O)C(=O)O)[C@@H](C)CC [β-endorphin]
µLight [8]
  μLight % bound at 10 μM: 46±3%
κLight1.3 [2]
  Normalized ΔF/F of κLight1.3: 0.21 ± 0.01
δLight [3]
  EC50: 217 nM
κLight1.3a [4]
  EC50: 2710 nM

## COc1ccc2c3c1O[C@H]1C(=O)CC[C@@]4(O)[C@@H](C2)N(C)CC[C@]314 [Oxycodone, oxycodone]
µLight [8]
  μLight % bound at 10 μM: 32±3%
κLight1.3 [2]
  Normalized ΔF/F of κLight1.3: 0.16 ± 0.04
µLight [6]
  µLight fluorescence response: suppressed
  μLight ΔF/F max (%): -12.8±2.78%

## Oc1ccc2c3c1O[C@H]1c4[nH]c5c(c4C[C@@]4(O)[C@@H](C2)N(CC2CC2)CC[C@]314)C[C@@]1(O)[C@H]2Cc3ccc(O)c4c3[C@@]1(CCN2CC1CC1)[C@H]5O4 [Nor-BNI, nor-binaltorphimine]
κLight1.3a [9]
  peak ΔF/F of κLight1.3a to 15 electrical stimuli in presence of antagonist: 1.57% ± 1.2
κLight1.3 [10]
  pA2 at κLight1.3: 8.28

## YGGFMRRVGRPEWWMDYQKRYGGFL [Peptide E]
µLight [8]
  μLight % bound at 10 μM: 65±2%
µLight [8]; read-out: μLight IC50
  IC50: 154 ± 2 nM
κLight
  IC50: 252 ± 2 nM

## ICI 174864
κLight1.3a [9]
  peak ΔF/F of κLight1.3a to 15 electrical stimuli in presence of antagonist: 6.44% ± 0.3
κLight1.3 [10]
  antagonism of κLight activation by DynA13: did not observe apparent antagonism

## CC(C)[C@H](NC(=O)[C@H](CC(=O)O)NC(=O)[C@H](Cc1ccccc1)NC(=O)[C@@H](C)NC(=O)[C@@H](N)Cc1ccc(O)cc1)C(=O)N[C@H](C(=O)NCC(N)=O)C(C)C [Deltorphin I]
κLight1.3 [2]
  Normalized ΔF/F of κLight1.3: 0.26 ± 0.02

## CC[C@H](C)[C@H](NC(=O)[C@H](CCCNC(=N)N)NC(=O)[C@H](CCCNC(=N)N)NC(=O)[C@H](CC(C)C)NC(=O)[C@H](Cc1ccccc1)NC(=O)CNC(=O)CNC(=O)[C@@H](N)Cc1ccc(O)cc1)C(=O)O [DynA8, dynorphin A1-8]
µLight [8]
  IC50: 48 ± 2 nM
  μLight % bound at 10 μM: 58±2%
κLight1.3 [2]
  Normalized ΔF/F of κLight1.3: 0.61 ± 0.04
